Data taken from PubChem BioAssay (NCI).
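Compound exposure: 48 hours, 5 concentrations, 96-well plates. The concentration for full growth arrest is given as TGI.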 Where a SMILES comes first, the peptide text is derived from it.

Columns and labels:
Experiment in all cases: DTP human tumour cell line panel, 48 h
CAKI-1 renal = system: CAKI-1 renal
HL-60(TB) leukemia = system: HL-60(TB) leukemia
K-562 leukemia = system: K-562 leukemia
LOX IMVI melanoma = system: LOX IMVI melanoma
MCF7 breast = system: MCF7 breast
MDA-MB-231 breast = system: MDA-MB-231 breast
NCI-H23 lung = system: NCI-H23 lung
SK-MEL-2 melanoma = system: SK-MEL-2 melanoma
SR leukemia = system: SR leukemia
U251 CNS = system: U251 CNS

Structure (SMILES) | TGI (CAKI-1 renal) [µM] | TGI (HL-60(TB) leukemia) [µM] | TGI (K-562 leukemia) [µM] | TGI (LOX IMVI melanoma) [µM] | TGI (MCF7 breast) [µM] | TGI (MDA-MB-231 breast) [µM] | TGI (NCI-H23 lung) [µM] | TGI (SK-MEL-2 melanoma) [µM] | TGI (SR leukemia) [µM] | TGI (U251 CNS) [µM]
O=C1NCN(c2ccccc2)C12CCN(CCCN1CCN(CCOC(c3ccccc3)c3ccccc3)CC1)CC2 | 7.43 | 4.31 | 1.09 | 6.18 | 6.23 | 7.25 | 7.46 | 6.75 | 2.04 | 7.45
CCCCCCCCCCCCCC(=O)OCC(CCS(=O)(=O)O[C@H]1CC[C@@]2(C)C(=CC[C@@H]3C2CC[C@]2(C)C(=O)CCC32)C1)OC(=O)CCCCCCCCCCCCC (some centres undefined) | > 100 | > 100 | > 100 | > 100 | > 100 | > 100 | > 100 | > 100 | > 100 | > 100
CCOc1cc2c(cc1O)C=C[C@@H]1[C@@H]2CC[C@]2(C)[C@@H](O)CC[C@@H]12 | 28.9 | 7.58 | > 100 | 30.4 | > 75.8 | 28.9 | > 48.1 | 42 | 23.7 | > 38.3
CCOC(=O)C1=NN(c2ccc(C)cc2)C2(c3ccccc3)C=C(c3ccccc3)N(C)CCN12 (centres undefined) | > 100 | > 100 | > 100 | > 100 | > 100 | > 100 | > 100 | > 100 | > 100 | > 100
CCN(CC)CCOCCOCC1(c2ccc(Cl)c(Cl)c2)CCCCC1 | 22.9 | 21 | 12.7 | 21.4 | 20.3 | 23 | 24.5 | 28.6 | 26.8 | 21.5
CC1CN=C(N(C(=O)Nc2ccc(Cl)cc2)c2cccc(Cl)c2)S1 (centres undefined) | > 100 | > 100 |  | > 100 | > 100 | > 100 | > 100 | 44.9 | > 100 | > 100
CC(=O)NC(CS)C(=O)NC(CO)C(=O)NC(CO)C(=O)NC(Cc1c[nH]c2ccccc12)C(=O)N1CCCC1C(=O)NC(CO)C(=O)NC(Cc1c[nH]c2ccccc12)C(=O)NC(Cc1c[nH]cn1)C(=O)NC(CO)C(=O)NC(Cc1c[nH]c2ccccc12)C(=O)NCC(=O)NCC(=O)NC(C)C(=O)NC(CCC(N)=O)C(=O)NC(CCCCN)C(=O)NC(C)C(=O)NC(CCCNC(=N)N)C(=O)NC(CCCCN)C(N)=O (centres undefined) (Ac-CSSWPSWHSWGGAQKARK-NH2; configuration not given here) | 33.6 | 34.5 | 28.5 | > 50 | > 50 | 19.7 | 48.8 | > 50 | 43.4 | 27.7
N#CC12CC(C=O)=C(N)C1(C#N)CC(C=O)=C2N (centres undefined) | > 100 | > 100 | > 100 | > 100 | > 100 | > 100 | > 100 | 76.3 | > 100 | > 100
COc1ccc(N[C@H](CS(=O)c2ccc(C)cc2)C(F)(F)F)cc1 (some centres undefined) | > 100 | > 100 | > 100 | > 100 | > 100 | > 100 | > 100 | > 100 | > 100 | > 100
Cc1cc(C)n(CN(CCCCO)Cn2nc(C)cc2C)n1 | 99.5 | 79 | 52.7 | 51.2 | 68.3 | 78.6 | 50.6 | 41.7 | 28.7 | 49.9
